In US10508104B2, “6-hydroxy-5-(phenyl/heteroarylsulfonyl)pyrimidin-4(1H)-one as APJ agonists” (Bristol-Myers Squibb Company, priority 2016, dated 2019):

Molecular target: human APJ receptor (Homo sapiens (Human), UniProt P35414)
Test: Intracellular cAMP accumulation assay (APJ hcAMP, HTRF)
Type: cell-based
Settings: human APJ, intracellular cAMP accumulation; read-out: Human APJ cAMP EC50 Potency range
Description: Intracellular cAMP Accumulation Assay
HEK293 cells stably expressing human APJ receptor were used to assess the activity of compounds. Cultured cells were detached and resuspended in the cAMP Homogeneous Time-Resolved Fluorescence (HTRF) assay buffer (Cisbio cat; #62AM4PEJ). The assay was performed in 384-well assay plates (Perkin-Elmer; cat #6008289) according to assay protocol provided by the manufacturer. Serial dilutions of a compound together with assay buffer containing […] and 2 μM forskolin were added to each well containing 5,000 cells and incubated for 30 minutes at room temperature. Subsequently, cAMP D2 reagent was added in the lysis buffer followed by the EuK antibody (Cisbio; cat #62AM4PEJ) and incubated for 60 min. The fluorescence emission ratio was measured using fluorometer. The intracellular cAMP concentrations (compound-stimulated inhibition of forskolin-mediated cAMP production) were calculated by extrapolation from a standard curve using known cAMP concentrations. The EC50 values were obtained by fitting the data to a sigmoidal concentration-response curve with variable slope.
The EC50 value of each compound is presented at the end of the example description.
The biological activity of the exemplified compounds of this invention determined by the assay described above is shown at the end of each example.

Sequence of human APJ receptor (P35414 whole entry): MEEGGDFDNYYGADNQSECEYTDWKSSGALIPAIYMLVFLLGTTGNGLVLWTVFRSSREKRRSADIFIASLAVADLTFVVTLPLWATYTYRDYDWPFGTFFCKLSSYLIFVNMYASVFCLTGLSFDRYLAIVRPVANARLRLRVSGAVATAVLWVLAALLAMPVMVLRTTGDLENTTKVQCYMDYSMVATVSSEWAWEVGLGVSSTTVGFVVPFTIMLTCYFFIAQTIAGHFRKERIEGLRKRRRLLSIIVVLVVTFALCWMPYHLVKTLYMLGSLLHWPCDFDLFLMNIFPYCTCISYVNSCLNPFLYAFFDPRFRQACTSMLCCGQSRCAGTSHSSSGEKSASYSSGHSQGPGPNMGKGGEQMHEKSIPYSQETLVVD

| EC50 | SMILES |
| --- | --- |
| 0.01 to 10 nM | CCCCc1nc(=O)c(S(=O)(=O)c2ccc(-c3ccnc(NC(=O)C4CC4)c3)cc2)c(O)n1-c1c(OC)cccc1OC [Example 51, N-[4-(4-{[2-butyl-1-(2,6-dimethoxyphenyl)-6-hydroxy-4-oxo-1,4-dihydropyrimidin-5-yl]sulfonyl}phenyl)pyri-din-2-yl]cyclopropane-carboxamide] |
| 0.01 to 10 nM | CCCCc1nc(=O)c(S(=O)(=O)c2ccc(-c3cccc4cnccc34)cc2)c(O)n1-c1c(OC)cccc1OC [Example 52, 2-butyl-1-(2,6-dimethoxyphenyl)-6-hydroxy-5-[4-(isoquinolin-5-yl)benzenesulfonyl]-1,4-dihydropyrimidin-4-one] |
| 0.01 to 10 nM | CCCCc1nc(=O)c(S(=O)(=O)c2ccc(-c3ccc4c(ccn4C)c3)cc2)c(O)n1-c1c(OC)cccc1OC [Example 53, 2-butyl-1-(2,6-dimethoxyphenyl)-6-hydroxy-5-[4-(1-methyl-1H-indol-5-yl)benzenesulfonyl]-1,4-dihydropyrimidin-4-one] |
| 0.01 to 10 nM | CCCCc1nc(=O)c(S(=O)(=O)c2ccc(-c3ccc4ncccc4c3)cc2)c(O)n1-c1c(OC)cccc1OC [Example 54, 2-butyl-1-(2,6-dimethoxyphenyl)-6-hydroxy-5-[4-(quinolin-6-yl)benzenesulfonyl]-1,4-dihydropyrimidin-4-one] |
| 0.01 to 10 nM | CCCCc1nc(=O)c(S(=O)(=O)c2ccc(-c3ccc(OC(F)(F)F)cc3)cc2)c(O)n1-c1c(OC)cccc1OC [Example 55, 2-butyl-1-(2,6-dimethoxyphenyl)-6-hydroxy-5-{4-[4-(trifluoromethoxy)phenyl]benzenesulfonyl}-1,4-dihydropyrimidin-4-one] |
| 0.01 to 10 nM | CCCCc1nc(=O)c(S(=O)(=O)c2ccc(-c3cc(Cl)cc(Cl)c3)cc2)c(O)n1-c1c(OC)cccc1OC [Example 56, 2-butyl-5-[4-(3,5-dichlorophenyl)benzenesulfonyl]-1-(2,6-dimethoxyphenyl)-6-hydroxy-1,4-dihydropyrimidin-4-one] |
| 0.01 to 10 nM | CCCCc1nc(=O)c(S(=O)(=O)c2ccc(-c3ccccc3F)cc2)c(O)n1-c1c(OC)cccc1OC [Example 57, 2-butyl-1-(2,6-dimethoxyphenyl)-5-[4-(2-fluorophenyl)benzene-sulfonyl]-6-hydroxy-1,4-dihydropyrimidin-4-one] |
| 0.01 to 10 nM | CCCCc1nc(=O)c(S(=O)(=O)c2ccc(-c3ccc(F)c(F)c3)cc2)c(O)n1-c1c(OC)cccc1OC [Example 58, 2-butyl-5-[4-(3,4-difluorophenyl)benzenesulfonyl]-1-(2,6-dimethoxyphenyl)-6-hydroxy-1,4-dihydropyrimidin-4-one] |
| 0.01 to 10 nM | CCCCc1nc(=O)c(S(=O)(=O)c2ccc(-c3ccc(C)c(C)c3)cc2)c(O)n1-c1c(OC)cccc1OC [Example 59, 2-butyl-1-(2,6-dimethoxyphenyl)-5-[4-(3,4-dimethylphenyl)benzene-sulfonyl]-6-hydroxy-1,4-dihydropyrimidin-4-one] |
| 0.01 to 10 nM | CCCCc1nc(=O)c(S(=O)(=O)c2ccc(-c3cccnc3C)cc2)c(O)n1-c1c(OC)cccc1OC [Example 60, 2-butyl-1-(2,6-dimethoxyphenyl)-6-hydroxy-5-[4-(2-methylpyridin-3-yl)benzenesulfonyl]-1,4-dihydropyrimidin-4-one] |
| 0.01 to 10 nM | CCCCc1nc(=O)c(S(=O)(=O)c2ccc(-c3ccc(Cl)nc3C)cc2)c(O)n1-c1c(OC)cccc1OC [Example 61, 2-butyl-5-[4-(6-chloro-2-methylpyridin-3-yl)benzenesulfonyl]-1-(2,6-dimethoxyphenyl)-6-hydroxy-1,4-dihydropyrimidin-4-one] |
| 0.01 to 10 nM | CCCCc1nc(=O)c(S(=O)(=O)c2ccc(C)cc2)c(O)n1-c1c(OC)cccc1OC [Example 62, 2-butyl-1-(2,6-dimethoxyphenyl)-6-hydroxy-5-(4-methylbenzenesulfonyl)-1,4-dihydropyrimidin-4-one] |
